This is an account of results in patent publication US9695192B2, “Fused heterocyclic compounds as ion channel modulators” (GILEAD SCIENCES, INC., priority 2011, dated 2017).

Read-outs that look alike come from different tables or passages of the source.

What all share (format): cell-based
The target in experiment [1] is wild-type human cardiac sodium channel, hNav1.5 (Homo sapiens, UniProt Q14524). The experiment in a line: Late INa screening assay (QPatch whole cell patch clamp, tefluthrin-enhanced late sodium current). Conditions: HEK293 hNav1.5, late INa activated with 10 μM Tefluthrin. The procedure, abridged:
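Automated whole-cell patch clamp of HEK293 cells stably expressing hNav1.5 (no β subunits), 23-25 °C. Late current enhanced by 10 μM tefluthrin, 250 ms steps to −20 mV from −120 mV at 0.1 Hz, measured 225-250 ms. Compounds typically 1 μM, three additions over 7-8 min; % block normalised to 0 Na baseline.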
A general note: In patch-clamp work, channel activity is measured electrically.

The next experiment has as its target T1, human Nav1.1 (Homo sapiens, UniProt P35498).
T1 construct: expressed in transfected cells; host or cells: HEK293, transient transfection (Qiagen Superfect), α1:β1:β2 at 10:1:1
Kind of experiment: Nav1.1 use-dependent block, whole-cell voltage clamp, 10 Hz pulse train. Conditions: Chantest conditions, read-out: NAV1.1 UDB-10 HZ % Inhibition.

The target in another experiment is T2, hNav1.2 sodium channel (Homo sapiens, UniProt Q99250).
T2 construct: expressed in transfected cells
The experiment in a line: Nav1.2 use-dependent block, whole-cell voltage clamp, 10 Hz pulse train. As to conditions: Chantest conditions, read-out: NAV1.2 UDB-10 HZ % Inhibition. The source says: Wild-type (WT) cDNA stably transfected in Chinese hamster ovary (CHO) cells is used to record INa. Unless otherwise noted, all reagents are purchased from Sigma-Aldrich (St Louis, Mo., U.S.A.).
Whole-cell voltage-clamp recordings are used to measure the biophysical properties of WT. Briefly, the pipette solution consists of (in mM) 110 CsF, 10 NaF, 20 CsCl, 2 EGTA, 10 HEPES, with a pH of 7.35 and osmolarity of 300 mOsmol/kg. The bath (control) solution contains in (mM): 145 NaCl, 4 KCl, 1.8 CaCl2, 1 MgCl2, 10 dextrose, 10 HEPES, with a pH of 7.35 and osmolarity of 310 mOsmol/kg. Cells are allowed to stabilize for 10 min after establishment of the whole-cell configuration before current is measured. Series resistance is compensated 90% to assure that the command potential is reached within microseconds with a voltage error<2 mV. Leak currents are subtracted by using an online P/4 procedure and all currents are low-pass Bessel filtered at 5 kHz and digitized at 50 kHz.
Tonic block of peak current is measured using a step to −10 mV (20 ms) from a holding potential of −120 mV (0.2 Hz). Use-dependent block of peak current is measured during pulse number 300 of a pulse train (−10 mV, 5 ms, 300 pulses, 10 Hz or 25 Hz) from a holding potential of −120 mV. Currents are then normalized to the peak current recorded in response to the first pulse in each frequency train. For tonic block studies, peak current is evaluated in response to a 20 ms depolarization to −10 mV (0.2 Hz). Two sequential pulse train stimulations are averaged to obtain mean current traces for each recording condition, which are then used for offline subtraction and analysis.
A stock solution of 10 mM compound of Formula I is prepared in 0.1 M HCl or DMSO. A fresh dilution of the compound of Formula I in the bath solution is prepared every experimental day and the pH is readjusted to 7.35 as necessary. The final DMSO concentration was kept at 0.1% in all solutions. Direct application of the perfusion solution to the clamped cell is achieved using the Perfusion Pencil system (Automate, Berkeley, Calif.). Direct cell perfusion is driven by gravity at a flow rate of 350 μL/min using a 250 micron tip. This system sequesters the clamped cell within a perfusion stream and enables complete solution exchange within 1 second. The clamped cell is perfused continuously starting immediately after establishing the whole-cell configuration. Control currents are measured during control solution perfusion.
Solutions are perfused for three minutes prior to current recordings to allow equilibrium (tonic) drug block. Tonic block of peak currents is measured from this steady-state condition. Three sequential current traces are averaged to obtain a mean current for each recording. The mean current traces are utilized for offline analysis.

Another experiment has as its target hNav1.5 Peak INa (Homo sapiens, UniProt Q14524). Kind of experiment: Peak INa screening assay (tonic block and use-dependent block). As for the experimental part:
The assay uses an HEK293 (human embryonic kidney) cell line heterologously expressing the wild-type human cardiac sodium channel, hNav1.5, purchased from Millipore (Billerica, Mass.). No beta subunits were coexpressed with the Na channel alpha subunit. Cells are maintained with standard tissue culture procedures and stable channel expression is maintained with 400 μg/mL Geneticin in the culture medium. […] Experiments are carried out at 23-25° C. […] Currents through open sodium channels are automatically recorded and stored in the Sophion Bioscience Oracle database (Sophion Bioscience, Copenhagen, Denmark). Analysis is performed using QPatch Assay and database software and data are compiled in Excel. Compound stocks are routinely made by the Gilead Sample Bank in plastic vials to 10 mM in dimethyl sulfoxide (DMSO). […] Stocks are sonicated as necessary. […] Compounds are diluted in extracellular solution to 1 μM in glass vials and then transferred to glass well plates before robotic addition to the cells. […] Good separation between the concentrations of test compound to reduce late and peak INa is beneficial to enable separation of the desired effect to reduce late INa-induced electrical and mechanical dysfunction from the undesired effect to reduce peak INa, which can lead to slowing or block of conduction of electrical excitation in the heart. It is contemplated that the compounds of Formula I avoid significant block of peak INa. […] Analysis of peak INa generally requires correction for rundown before determining the % block of peak current by the tested compound. […] Use-dependent block refers to the accumulation of block with increased frequency of channel activation. […] It is therefore expected that reduction of peak INa by compounds of this disclosure will be greater at high heart rates, such as those during tachyarrhythmias, than at normal heart rates. […] The intracellular solution used for the Peak INa assay is the same as outlined for the Late INa assay (see above). […] After establishing the whole cell recording configuration, channels were stimulated to open with low frequency stimulation (0.1 Hz) for 7 minutes so that the recording can be monitored and the extent to which the recording has stabilized can be assessed. […] Both TB and UDB were analyzed by incorporating rundown correction for the peak INa and UDB as calculated by compensating for the small use-dependent effect of the stimulation protocol on peak INa in the absence of compound.

Setting [2] is: at 1 μM, 3 Hz stimulation, holding potential −100 mV, read-out: Peak UDB (use-dependent block of peak INa) % Inhibition.
[3] abbreviates: read-out: Peak TB (tonic block of peak INa) % Inhibition.

hNav1.5 Peak INa, sequence (Q14524 whole entry): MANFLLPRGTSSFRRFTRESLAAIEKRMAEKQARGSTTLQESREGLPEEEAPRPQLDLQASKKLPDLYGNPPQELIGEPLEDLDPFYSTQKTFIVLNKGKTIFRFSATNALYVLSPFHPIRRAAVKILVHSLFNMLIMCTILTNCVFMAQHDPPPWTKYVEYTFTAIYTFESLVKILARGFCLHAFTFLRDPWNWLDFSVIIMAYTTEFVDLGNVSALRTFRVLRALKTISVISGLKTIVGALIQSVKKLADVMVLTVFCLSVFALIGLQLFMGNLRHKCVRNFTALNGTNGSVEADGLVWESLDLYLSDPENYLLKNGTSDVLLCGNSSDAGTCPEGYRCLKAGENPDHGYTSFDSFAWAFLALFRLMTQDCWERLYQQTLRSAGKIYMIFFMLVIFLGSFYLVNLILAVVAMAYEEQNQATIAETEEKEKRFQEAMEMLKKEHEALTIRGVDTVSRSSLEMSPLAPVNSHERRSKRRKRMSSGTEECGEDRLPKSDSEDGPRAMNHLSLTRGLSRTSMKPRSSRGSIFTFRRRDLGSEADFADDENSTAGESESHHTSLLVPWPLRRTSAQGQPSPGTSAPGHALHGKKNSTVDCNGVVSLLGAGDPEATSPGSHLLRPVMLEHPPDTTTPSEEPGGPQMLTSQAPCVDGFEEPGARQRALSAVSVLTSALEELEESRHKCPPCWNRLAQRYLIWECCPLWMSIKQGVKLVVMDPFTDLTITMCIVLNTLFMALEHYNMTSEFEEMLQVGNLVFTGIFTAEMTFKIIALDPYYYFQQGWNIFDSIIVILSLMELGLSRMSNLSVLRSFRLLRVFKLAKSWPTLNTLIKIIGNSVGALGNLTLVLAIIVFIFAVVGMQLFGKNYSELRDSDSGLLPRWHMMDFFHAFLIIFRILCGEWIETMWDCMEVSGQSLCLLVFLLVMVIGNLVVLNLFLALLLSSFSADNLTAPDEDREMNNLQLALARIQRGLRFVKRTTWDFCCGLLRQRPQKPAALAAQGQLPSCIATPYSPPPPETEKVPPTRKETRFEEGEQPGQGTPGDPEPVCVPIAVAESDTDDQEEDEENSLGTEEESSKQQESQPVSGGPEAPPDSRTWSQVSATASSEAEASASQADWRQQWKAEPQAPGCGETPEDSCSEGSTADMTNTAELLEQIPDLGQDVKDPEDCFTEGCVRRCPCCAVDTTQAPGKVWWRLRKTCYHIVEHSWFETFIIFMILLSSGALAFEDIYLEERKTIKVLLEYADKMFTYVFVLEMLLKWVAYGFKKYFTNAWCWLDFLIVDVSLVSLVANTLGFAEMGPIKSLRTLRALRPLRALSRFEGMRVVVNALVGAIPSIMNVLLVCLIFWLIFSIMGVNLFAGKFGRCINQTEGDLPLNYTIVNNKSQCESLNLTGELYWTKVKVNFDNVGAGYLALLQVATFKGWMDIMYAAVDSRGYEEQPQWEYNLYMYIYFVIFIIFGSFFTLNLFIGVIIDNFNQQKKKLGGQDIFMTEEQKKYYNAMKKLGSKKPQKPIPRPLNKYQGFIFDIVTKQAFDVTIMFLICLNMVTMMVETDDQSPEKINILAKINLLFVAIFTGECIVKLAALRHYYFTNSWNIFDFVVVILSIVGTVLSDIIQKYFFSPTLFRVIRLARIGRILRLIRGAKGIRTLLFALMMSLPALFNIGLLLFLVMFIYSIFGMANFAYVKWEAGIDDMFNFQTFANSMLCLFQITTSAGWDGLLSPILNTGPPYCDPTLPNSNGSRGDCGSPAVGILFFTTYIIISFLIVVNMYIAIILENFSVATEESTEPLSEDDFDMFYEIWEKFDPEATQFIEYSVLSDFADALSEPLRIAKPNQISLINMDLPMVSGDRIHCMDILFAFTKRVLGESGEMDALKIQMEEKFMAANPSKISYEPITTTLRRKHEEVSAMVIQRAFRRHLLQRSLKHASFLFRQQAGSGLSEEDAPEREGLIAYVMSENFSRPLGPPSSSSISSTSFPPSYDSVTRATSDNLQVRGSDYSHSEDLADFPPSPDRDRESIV
wild-type human cardiac sodium channel, hNav1.5, sequence (Q14524 whole entry): as above

With `CC(C)(O)c1cnc2n1CCOc1ccc(-c3ccc(C(F)(F)F)cc3)cc1-2` [Compound I-10, 2-(10-(4-(trifluoromethyl)phenyl)-5,6-dihydrobenzo[f]imidazo[1,2-d][1,4]oxazepin-3-yl)propan-2-ol], the results for the inhibition at 1 µM (in experiment [1]; on human Nav1.1; on hNav1.2 sodium channel) were 10%, -5% and 0%, respectively.

With `FC(F)(F)c1ccc(-c2ccc3c(c2)-c2ncc(C4CC4)n2CCO3)cc1` [Compound I-9, 3-cyclopropyl-10-(4-(trifluoromethyl)phenyl)-5,6-dihydrobenzo[f]imidazo[1,2-d][1,4]oxazepine], the inhibition at 1 µM amounted to 4% in experiment [1], 4% on human Nav1.1 and 0% on hNav1.2 sodium channel.

Take `FC(F)(F)c1ccc(-c2ccc3c(c2)-c2ncc(Br)n2CCO3)cc1` [Compound I-12, 3-bromo-10-(4-(trifluoromethyl)phenyl)-5,6-dihydrobenzo[f]imidazo[1,2-d][1,4]oxazepine]: the inhibition at 1 µM is 4% in experiment [1], -7% at human Nav1.1 and 6% on hNav1.2 sodium channel.

With `Cc1c(Cl)nc2n1CCOc1ccc(-c3ccc(C(F)(F)F)cc3)cc1-2` [Compound I-14, 2-chloro-3-methyl-10-(4-(trifluoromethyl)phenyl)-5,6-dihydrobenzo[f]imidazo[1,2-d][1,4]oxazepine], the figures for the inhibition at 1 µM (in experiment [1]; at human Nav1.1; at hNav1.2 sodium channel) were 11%, 0% and 4%, respectively.

`FC(F)(F)c1ccc(-c2ccc3c(c2)C(N2CCC(c4ccccn4)C2)=NCCO3)cc1` (stereo not drawn) [II-60, 5-(3-(pyridin-2-yl)pyrrolidin-1-yl)-7-(4-(trifluoromethyl)phenyl)-2,3-dihydrobenzo[f][1,4]oxazepine]: the figures for the inhibition at 1 µM (in experiment [1]; at hNav1.5 Peak INa (setting [2]); on hNav1.5 Peak INa (setting [3])) were 42%, 25% and 10%, respectively.

For the compound `FC(F)(F)c1ccc(-c2ccc3c(c2)-c2ncc(Cc4ccccc4)n2CCO3)cc1` [Compound I-11, 3-benzyl-10-(4-(trifluoromethyl)phenyl)-5,6-dihydrobenzo[f]imidazo[1,2-d][1,4]oxazepine], the inhibition at 1 µM in experiment [1] was 13%; on human Nav1.1, -5%; on hNav1.2 sodium channel, -5%.

With `FC(F)(F)Oc1ccc(-c2ccc3c(c2)-c2nccn2CCO3)cc1` [Compound I-2, 10-(4-(trifluoromethoxy)phenyl)-5,6-dihydrobenzo[f]imidazo[1,2-d][1,4]oxazepine], the inhibition at 1 µM in experiment [1] amounted to 31%; on human Nav1.1, 1%; at hNav1.2 sodium channel, 18%.

Regarding `Cc1cnc2n1CCOc1ccc(-c3ccc(C(F)(F)F)cc3)cc1-2` [Compound I-6, 3-methyl-10-(4-(trifluoromethyl)phenyl)-5,6-dihydrobenzo[f]imidazo[1,2-d][1,4]oxazepine], the inhibition at 1 µM in experiment [1] is 28%; on human Nav1.1, -10%; on hNav1.2 sodium channel, -3%.

Turning to `FC(F)(F)c1ccc(-c2ccc3c(c2)-c2nccn2CCO3)cc1` [Compound I-1, 10-(4-(trifluoromethyl)phenyl)-5,6-dihydrobenzo[f]imidazo[1,2-d][1,4]oxazepine], the inhibition at 1 µM in experiment [1] was 32%; at human Nav1.1, -12%; at hNav1.2 sodium channel, 2%.

On to `CN(C)[C@H]1CCN(C2=NCCOc3ccc(-c4ccc(C(F)(F)F)cc4)cc32)C1` [II-15, (S)—N,N-dimethyl-1-(7-(4-(trifluoromethyl)phenyl)-2,3-dihydrobenzo[f][1,4]oxazepin-5-yl)pyrrolidin-3-amine], for which the values for the inhibition at 1 µM (in experiment [1]; on hNav1.5 Peak INa (setting [2]); at hNav1.5 Peak INa (setting [3])) were 49%, 27% and 16%, respectively.

`FC(F)(F)c1ccc(-c2ccc3c(c2)C(NCCOc2ccccn2)=NCCO3)cc1` [II-20, N-(2-(pyridin-2-yloxy)ethyl)-7-(4-(trifluoromethyl)phenyl)-2,3-dihydrobenzo[f][1,4]oxazepin-5-amine]: the inhibition at 1 µM in experiment [1] came to 59%; on hNav1.5 Peak INa (setting [2]), 89%; at hNav1.5 Peak INa (setting [3]), 30%.

Turning to `FC(F)(F)c1ccc(-c2ccc3c(c2)C(NCCOc2ccccc2)=NCCO3)cc1` [II-22, N-(2-phenoxyethyl)-7-(4-(trifluoromethyl)phenyl)-2,3-dihydrobenzo[f][1,4]oxazepin-5-amine], the inhibition at 1 µM amounted to 60% in experiment [1], 69% at hNav1.5 Peak INa (setting [2]) and 19% on hNav1.5 Peak INa (setting [3]).

Take `FC(F)(F)c1ccc(-c2ccc3c(c2)-c2ncc(Cl)n2CCO3)cc1` [Compound I-13, 3-chloro-10-(4-(trifluoromethyl)phenyl)-5,6-dihydrobenzo[f]imidazo[1,2-d][1,4]oxazepine]: the figures for the inhibition at 1 µM (in experiment [1]; at human Nav1.1; on hNav1.2 sodium channel) were 6%, -3% and 8%, respectively.

For orientation: inhibition means the drop in the measured response relative to a control, in per cent.
